Test results from US20230212653A1, “METHODS AND MATERIALS FOR ASSESSING HOMOLOGOUS RECOMBINATION DEFICIENCY IN BREAST CANCER SUBTYPES” (Myriad Genetics, Inc., priority 2021, published 2023).

Tested on: triple negative breast cancer (TNBC)
Experiment: Pathologic response of a neoadjuvant TNBC cohort treated with cisplatin (Example 6)
Assay type: in vivo, human
Conditions: for PR = yes, % response / pCR = yes, % response: secondary analysis; for pCR = yes, % response: n=51
Description: Analysis of a neoadjuvant TNBC cohort treated with cisplatin was examined relative to the relationship between all three HRD scores and response. All p values were from logistic regression models with response to cisplatin as the dependent variable.
HR Deficiency status was determined for 62 of the 70 samples (70 individual patients) received from a cisplatin cohort (8 had insufficient tumors for analysis). Of these, 31 (50%) were HR deficient, 22 (35%) were non-HR deficient, and 9 (15%) were undetermined. FIG. 15 provides a histogram showing the distribution of HRD scores in the cohort. Scores ≥42 were considered to have high HRD (see also, Example 5). […] Pathologic complete response (pCR), which is associated with long-term survival, was defined as a residual cancer burden (RBC) of 0 and observed in 11/59 (19%) samples. […] These overall response rates correlated with monotherapy expectations.
Statistical analyses followed a predefined Statistical Analysis Plan (SAP), which included primary, secondary, and BRCA wild-type subset analyses.

N.N.[Cl][Pt][Cl] [cisplatin]
PR = yes, % response (BRCA Mutant): 5 (55.6%) | pCR = yes, % response (BRCA Mutant): 3 (33.3%) | PR = yes, % response (BRCA Non-mutant): 13 (31.0%) | pCR = yes, % response (BRCA Non-mutant): 5 (11.9%) | Pathologic complete response (pCR) rate (whole cisplatin cohort, 11/59 samples, pCR = residual cancer burden 0): 19% | Pathologic response (PR) rate (whole cisplatin cohort, 22/59 samples, PR = residual cancer burden 0 or 1): 37%
